Source: patent EP0014434A1, “Right-turning basic derivative of 9,10-ethanoanthracene, process for its preparation and pharmaceutical preparations containing it” (priority 1979, dated 1980)

Assays:
[1] = tested on: durch 2 mg/kg sc. Reserpin induzierten Hypothermie; experiment: Antagonism of reserpine-induced hypothermia; assay type: in vivo, männlichen Mäusen; conditions: male mice, Hydrochlorid compared with the corresponding Racemat
Procedure: (§1) Das S-(+)-o-[Methylamino)methyl]-9,10-äthanoan- thracen-9(10H)-äthanol und seine Säureadditionssalze besitzen wertvolle pharmakologische Eigenschaften. Vor allem zeigen sie sehr starke Wirkungen in Tests, die für Antidepressiva charakteristisch sind. Eine deutliche Antagonisierung der durch 2 mg/kg sc. Reserpin induzierten Hypothermie an männlichen Mäusen [Askew, Life Sci. 10, 725 (1963),und Benz und Waser, Dissertation 1971, Pharmakolog. […] Die durch 2 mg/kg sc. Reserpin induzierte Ptosis an männlichen Ratten [Rubin et al, J. Pharmacol. Exp. Therap.

[2] = tested on: durch Fuss-Schock induzierten Kampfreaktion der Maus; experiment: Foot-shock induced fighting reaction; assay type: in vivo; conditions: mouse; equal doses of Formel I (tested as Hydrochlorid) and Racemat
Description: (§2) Therap. 125, 28-34 (1959)], während bei der Antagonisierung der durch Tetrabenazin induzierten Katalepsie der Ratte nach oraler Verabreichung, und bei der Potenzierung der durch G 29 505 [2-(4-Allyl-2-methoxyphenoxy)-N,N-diäthyl-acetamid] bewirkten Narkose der Maus [W. Theobald und R. Domenjoz, Arzneimittelforsch.

[3] = tested on: durch G 29 505 [2-(4-Allyl-2-methoxyphenoxy)-N,N-diäthyl-acetamid] bewirkten Narkose der Maus; experiment: Potentiation of G 29 505-induced narcosis; assay type: in vivo; conditions: mouse; intraperitoneal administration; Hydrochlorid compared with Racemat
Description: as §2

[4] = tested on: Noradrenalindepletierenden Effektes von H 77/77 (3-Hydroxy-4,a-dimethyl- phenäthylamin) im Rattenhirn; experiment: Inhibition of the noradrenaline-depleting effect of H 77/77 in rat brain (indirect measure of noradrenaline uptake inhibition); assay type: in vivo, Ratte; conditions: po, Formel I tested as Hydrochlorid, read-out: ED50 Hemmung des Noradrenalindepletierenden Effektes von H 77/77 im Rattenhirn
[5] = tested on: Histamin-Toxizität; experiment: Antagonism of histamine toxicity; assay type: in vivo, Meerschweinchen; conditions: guinea pig; equal doses of Formel I (tested as Hydrochlorid) and Racemat
Description: as §2

[6] = tested on: endogenen Konzentrationen von Noradrenalin im Rattenhirn; experiment: Endogenous noradrenaline concentration in rat brain; assay type: in vivo, Ratte; conditions: no influence up to this dose, p.o. for Formel I (Hydrochlorid)
[7] = tested on: durch 2 mg/kg sc. Reserpin induzierte Ptosis; experiment: Antagonism of reserpine-induced ptosis; assay type: in vivo, männlichen Ratten
Procedure: as §1

[8] = tested on: durch Tetrabenazin induzierten Katalepsie der Ratte; experiment: Antagonism of tetrabenazine-induced catalepsy; assay type: in vivo; conditions: rat; oral administration; Hydrochlorid compared with Racemat
Description: as §2

[9] = tested on: Noradrenalin- Aufnahme ins Rattenherz; experiment: Inhibition of noradrenaline uptake into rat heart (method of Maitre, Staehelin and Bein); assay type: in vivo, Ratte; conditions: po, Formel I tested as Hydrochlorid, read-out: ED50 Hemmung der Noradrenalin- Aufnahme ins Rattenherz
Procedure: Neurobiochemisch zeigt das Hydrochlorid der Verbindung der Formel I eine starke Hemmung der Noradrenalin- Aufnahme ins Rattenherz gemäss der Methode von L. Maitre, M. Staehelin und H. Bein, Biochem. Pharmacol. 20, 2169 (1971) mit einer ED50 von etwa 0,3 mg/kg p.o., während die ED50 des entsprechenden Racemats bei etwa 1,5 mg/kg p.o. liegt, wie auch eine starke Hemmung des Noradrenalindepletierenden Effektes von H 77/77 (3-Hydroxy-4,a-dimethyl- phenäthylamin) im Rattenhirn als indirekte Anzeige der Noradrenalin-Aufnahme-Hemmung [A. Carlsson, H. Corrodi, K. Fuxe und T. Hoefkelt, Europ. J. Pharmacol. 5, 367 (1969)] mit einer ED50 von etwa 2 mg/kg p.o., gegenüber einer ED50 von etwa 10 mg/kg p.o. des entsprechenden Racemats. Die endogenen Konzentrationen von Noradrenalin und von Dopamin im Rattenhirn, gemessen nach P. Waldmeier, de Herdt und L. Maitre [Chir. Chem. 20, 81, (1974)] werden weder vom Hydrochlorid der Verbindung der Formel I in Dosen bis 100 mg/kg bzw. bis 30 mg/kg p.o., noch vom entsprechenden Racemat in Dosen bis 10 mg/kg bzw. bis 100 mg/kg beeinflusst.

[10] = tested on: isolierten rechten Vorhof; set-up: species or system Meerschweinchen
[11] = Acute toxicity; assay type: in vivo
[12] = tested on: exploratorischen Aktivität der Maus; experiment: Exploratory activity; assay type: in vivo; conditions: mouse; equal doses of Formel I (tested as Hydrochlorid) and Racemat
[13] = tested on: endogenen Konzentrationen von Dopamin im Rattenhirn; experiment: Endogenous dopamine concentration in rat brain; assay type: in vivo, Ratte; conditions: no influence up to this dose, p.o. for Formel I (Hydrochlorid)

CNC[C@@H](O)CC12CCC(c3ccccc31)c1ccccc12 [Verbindung der Formel I, S-(+)-a-[(Methylamino)methyl]-9,10-äthanoanthracen-9(10H)-äthanol]
Antagonisierung der Reserpin induzierten Hypothermie, Vergleich mit Racemat [1]: stärker als die Wirkung von mehrfachen Dosen des entsprechenden Racemats
durch Fuss-Schock induzierte Kampfreaktion, Vergleich mit Racemat [2]: ungefähr dieselben Wirkungen
Potenzierung der durch G 29 505 bewirkten Narkose, Vergleich mit Racemat [3]: in ungefähr der halben Dosierung gleich wirksam
ED50 [4]: ~2 mg/kg
Antagonisierung der Histamin-Toxizität, Vergleich mit Racemat [5]: ungefähr dieselben Wirkungen
Dosen, bis zu denen die endogene Konzentration von Noradrenalin im Rattenhirn nicht beeinflusst wird [6]: ≤ 100 mg/kg
Reserpin induzierte Ptosis ([7]; male rats, 0,3 mg/kg p.o. of the Hydrochlorid): aufgehoben
Reserpin induzierte Ptosis ([7]; male rats, O,1 mg/kg p.o. of the Hydrochlorid): deutlich vermindert
Antagonisierung der durch Tetrabenazin induzierten Katalepsie, Vergleich mit Racemat [8]: in ungefähr der halben Dosierung gleich wirksam
ED50 [9]: ~0.3 mg/kg
negativ chronotrope Wirkung, Vergleich mit Racemat [10]: schwächer
akute Toxizität, Vergleich mit Racemat ([11]; intravenous administration): ungefähr gleich
akute Toxizität, Vergleich mit Racemat ([11]; oral administration): ungefähr gleich
exploratorische Aktivität, Vergleich mit Racemat [12]: ungefähr dieselben Wirkungen
Dosen, bis zu denen die endogene Konzentration von Dopamin im Rattenhirn nicht beeinflusst wird [13]: ≤ 30 mg/kg

CNCC(O)CC12CCC(c3ccccc31)c1ccccc12 (racemic) [Racemat, a-[(Methylamino)methyl]-9,10-äthanoanthracen-9(10H)-äthanol, reference compound]
ED50 [4]: ~10 mg/kg
Dosen, bis zu denen die endogene Konzentration von Noradrenalin im Rattenhirn nicht beeinflusst wird [6]: ≤ 10 mg/kg
Dosierung, die die Reserpin induzierte Ptosis völlig aufhebt ([7]; male rats, relative to 0,3 mg/kg p.o. of the Hydrochlorid of Formel I): erheblich höheren Dosierung
ED50 [9]: ~1.5 mg/kg
Dosen, bis zu denen die endogene Konzentration von Dopamin im Rattenhirn nicht beeinflusst wird [13]: ≤ 100 mg/kg
